Test results from PubChem BioAssay AID1259407 (Chemical Carcinogenesis Research Information System (CCRIS), 2018).
Activity calls are given as the source filed them. How the calls were made is not given here.

Tested on: CCRIS mutagenicity, Ames/micronucleus/aberration tests
Assay: CCRIS mutagenicity studies

Measured: mutagenic call

O=C(O)c1cc(=O)c2c(OCC(O)COc3cccc4oc(C(=O)O)cc(=O)c34)cccc2o1
inactive: Test System: AMES SALMONELLA TYPHIMURIUM, Strain/Indicator: TA97, Metabolic Activation: HAMSTER, LIVER, S-9, AROCLOR 1254, Method: STANDARD PLATE inactive; negative | Test System: AMES SALMONELLA TYPHIMURIUM, Strain/Indicator: TA97, Metabolic Activation: NONE, Method: STANDARD PLATE inactive; negative | Test System: AMES SALMONELLA TYPHIMURIUM, Strain/Indicator: TA97, Metabolic Activation: RAT, LIVER, S-9, AROCLOR 1254, Method: STANDARD PLATE inactive; negative | Test System: AMES SALMONELLA TYPHIMURIUM, Strain/Indicator: TA98, Metabolic Activation: HAMSTER, LIVER, S-9, AROCLOR 1254 (2.5-20%), Method: STANDARD PLATE inactive; negative | Test System: AMES SALMONELLA TYPHIMURIUM, Strain/Indicator: TA98, Metabolic Activation: HAMSTER, LIVER, S-9, AROCLOR 1254, Method: STANDARD PLATE inactive; negative | Test System: AMES SALMONELLA TYPHIMURIUM, Strain/Indicator: TA98, Metabolic Activation: NONE, Method: STANDARD PLATE inactive; negative | Test System: AMES SALMONELLA TYPHIMURIUM, Strain/Indicator: TA98, Metabolic Activation: RAT, LIVER, S-9, AROCLOR 1254 (2.5-20%), Method: STANDARD PLATE inactive; negative | Test System: AMES SALMONELLA TYPHIMURIUM, Strain/Indicator: TA98, Metabolic Activation: RAT, LIVER, S-9, AROCLOR 1254, Method: STANDARD PLATE inactive; negative | Test System: AMES SALMONELLA TYPHIMURIUM, Strain/Indicator: TA100, Metabolic Activation: HAMSTER, LIVER, S-9, AROCLOR 1254, Method: STANDARD PLATE inactive; negative | Test System: AMES SALMONELLA TYPHIMURIUM, Strain/Indicator: TA100, Metabolic Activation: NONE, Method: STANDARD PLATE inactive; negative | Test System: AMES SALMONELLA TYPHIMURIUM, Strain/Indicator: TA100, Metabolic Activation: RAT, LIVER, S-9, AROCLOR 1254, Method: STANDARD PLATE inactive; negative | Test System: AMES SALMONELLA TYPHIMURIUM, Strain/Indicator: TA1535, Metabolic Activation: HAMSTER, LIVER, S-9, AROCLOR 1254, Method: STANDARD PLATE inactive; negative | Test System: AMES SALMONELLA TYPHIMURIUM, Strain/Indicator: TA1535, Metabolic Activation: NONE, Method: STANDARD PLATE inactive; negative | Test System: AMES SALMONELLA TYPHIMURIUM, Strain/Indicator: TA1535, Metabolic Activation: RAT, LIVER, S-9, AROCLOR 1254, Method: STANDARD PLATE inactive; negative | Test System: AMES SALMONELLA TYPHIMURIUM, Strain/Indicator: TA1537, Metabolic Activation: HAMSTER, LIVER, S-9, AROCLOR 1254, Method: STANDARD PLATE inactive; negative | Test System: AMES SALMONELLA TYPHIMURIUM, Strain/Indicator: TA1537, Metabolic Activation: NONE, Method: STANDARD PLATE inactive; negative | Test System: AMES SALMONELLA TYPHIMURIUM, Strain/Indicator: TA1537, Metabolic Activation: RAT, LIVER, S-9, AROCLOR 1254, Method: STANDARD PLATE inactive; negative | Test System: AMES SALMONELLA TYPHIMURIUM, Strain/Indicator: TA1538, Metabolic Activation: HAMSTER, LIVER, S-9, AROCLOR 1254 (2.5-20%), Method: STANDARD PLATE inactive; negative | Test System: AMES SALMONELLA TYPHIMURIUM, Strain/Indicator: TA1538, Metabolic Activation: HAMSTER, LIVER, S-9, AROCLOR 1254, Method: STANDARD PLATE inactive; negative | Test System: AMES SALMONELLA TYPHIMURIUM, Strain/Indicator: TA1538, Metabolic Activation: NONE, Method: STANDARD PLATE inactive; negative | Test System: AMES SALMONELLA TYPHIMURIUM, Strain/Indicator: TA1538, Metabolic Activation: RAT, LIVER, S-9, AROCLOR 1254 (2.5-20%), Method: STANDARD PLATE inactive; negative | Test System: AMES SALMONELLA TYPHIMURIUM, Strain/Indicator: TA1538, Metabolic Activation: RAT, LIVER, S-9, AROCLOR 1254, Method: STANDARD PLATE inactive; negative | Test System: MOUSE LYMPHOMA, Strain/Indicator: L5178Y (TK+/TK-), Metabolic Activation: NONE, Method: SUSPENSION/PLATE inactive; negative; reevaluation of results: negative | Test System: MOUSE LYMPHOMA, Strain/Indicator: L5178Y (TK+/TK-), Metabolic Activation: RAT, LIVER, S-9, AROCLOR 1254, Method: SUSPENSION/PLATE inactive; negative. reevaluation of results: negative

CCCCC(CC)COC(=O)c1ccc(C(=O)OCC(CC)CCCC)c(C(=O)OCC(CC)CCCC)c1 (configuration not stated)
inactive: Test System: AMES SALMONELLA TYPHIMURIUM, Strain/Indicator: TA97, Metabolic Activation: HAMSTER, LIVER, S-9, AROCLOR 1254 (10 OR 30%), Method: PREINCUBATION inactive; negative | Test System: AMES SALMONELLA TYPHIMURIUM, Strain/Indicator: TA97, Metabolic Activation: NONE, Method: PREINCUBATION inactive; negative | Test System: AMES SALMONELLA TYPHIMURIUM, Strain/Indicator: TA97, Metabolic Activation: RAT, LIVER, S-9, AROCLOR 1254 (10 OR 30%), Method: PREINCUBATION inactive; negative | Test System: AMES SALMONELLA TYPHIMURIUM, Strain/Indicator: TA98, Metabolic Activation: HAMSTER, LIVER, S-9, AROCLOR 1254 (10 OR 30%), Method: PREINCUBATION inactive; negative | Test System: AMES SALMONELLA TYPHIMURIUM, Strain/Indicator: TA98, Metabolic Activation: NONE, Method: PREINCUBATION inactive; negative | Test System: AMES SALMONELLA TYPHIMURIUM, Strain/Indicator: TA98, Metabolic Activation: RAT, LIVER, S-9, AROCLOR 1254 (10 OR 30%), Method: PREINCUBATION inactive; negative | Test System: AMES SALMONELLA TYPHIMURIUM, Strain/Indicator: TA100, Metabolic Activation: HAMSTER, LIVER, S-9, AROCLOR 1254 (10 OR 30%), Method: PREINCUBATION inactive; negative | Test System: AMES SALMONELLA TYPHIMURIUM, Strain/Indicator: TA100, Metabolic Activation: NONE, Method: PREINCUBATION inactive; negative | Test System: AMES SALMONELLA TYPHIMURIUM, Strain/Indicator: TA100, Metabolic Activation: RAT, LIVER, S-9, AROCLOR 1254 (10 OR 30%), Method: PREINCUBATION inactive; negative | Test System: AMES SALMONELLA TYPHIMURIUM, Strain/Indicator: TA1535, Metabolic Activation: HAMSTER, LIVER, S-9, AROCLOR 1254 (10 OR 30%), Method: PREINCUBATION inactive; negative | Test System: AMES SALMONELLA TYPHIMURIUM, Strain/Indicator: TA1535, Metabolic Activation: NONE, Method: PREINCUBATION inactive; negative | Test System: AMES SALMONELLA TYPHIMURIUM, Strain/Indicator: TA1535, Metabolic Activation: RAT, LIVER, S-9, AROCLOR 1254 (10 OR 30%), Method: PREINCUBATION inactive; negative

c1ccc2c(c1)ccc1nc3c4c(c5ccccc5c3cc12)O4
active: Test System: AMES SALMONELLA TYPHIMURIUM, Strain/Indicator: TA100, Metabolic Activation: GUINEA PIG, LIVER, S-9, 3-METHYLCHOLANTHRENE, Method: STANDARD PLATE active; positive
